The values that follow come from US8466186B2, “Compounds” (Boehringer Ingelheim International GmbH, priority 2010, dated 2013).

The test concerns the target T1, recombinant human mPGES-1 (Homo sapiens, UniProt O14684).
T1 construct: made in house; host or cells: Rosetta E. coli (membrane/microsome fraction)
T1 sequence (O14684 1-152): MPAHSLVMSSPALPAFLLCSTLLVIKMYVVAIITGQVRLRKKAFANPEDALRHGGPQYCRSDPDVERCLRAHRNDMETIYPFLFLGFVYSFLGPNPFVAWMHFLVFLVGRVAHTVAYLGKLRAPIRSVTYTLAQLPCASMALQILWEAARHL
The test is described as follows: Assay A: mPGES-1 enzyme assay (HTRF detection of PGE2). Type of test: biochemical. The following applies: biological assay A; microsomes from E. coli expressing recombinant human mPGES-1; read-out: mPGES-1 inhibitory effect IC50. The text has this: The aim of this assay is to determine the affinity of a test compound for the mPGES-1 enzyme.
• 1. Riendeau, D., R. Aspiotis, D. Ethier, Y. Gareau, E. Grimm, J. Guay, S. Guiral, H. Juteau, J. Mancini, N. Methot, J. Rubin, and R. Friesen, Inhibitors of the inducible microsomal prostaglandin E2 synthase (mPGES-1) derived from MK-886. Bioorg Med Chem Lett, 2005. 15(14): p. 3352-3355. • 2. Cote, B., L. Boulet, C. Brideau, D. Claveau, D. Ethier, R. Frenette, M. Gagnon, A. Giroux, J. Guay, S. Guiral, J. Mancini, E. Martins, F. Masse, N. Methot, D. Riendeau, J. Rubin, D. Xu, H. Yu, Y. Ducharme, and R. Friesen, Substituted phenanthrene imidazoles as potent, selective, and orally active mPGES-1 inhibitors. Bioorg Med Chem Lett, 2007. 17(24): p. 6816-6820. Assay A: mPGES-1 Enzyme Assay List of Reagents Used: • Glutathione (Sigma, G-4251) • Freeze culture in Rosetta E coli expression strain. • LB growth media with Ampillicillin (Amp) final concentration in culture 50 μg/mL • Chloroamphenicol stock 34 mg/mL (chloro) final concentration in culture 34 μg/mL • Sterile growth flasks for 500 mL-1 liter cultures • 0.1 M KP, buffer pH 7.4 • 9.25% HCl • PGH2 (0.25 mM) • Fe (II) Cl2 tetrahydrate, 99% (Sigma, 220229) • 384-well plate with compounds • 96-well plate, polypropylene (Thermo fast 96 skirted VWR) • 384-well plate polypropylene PCR plate (Greiner 785201) • Greiner 384-well plate pp (In vitro cat. no. 781280) • Adhesive sealing film for 96-well plates (Sigma-Aldrich) • Aluminium foil (PCR foil, 310-0030-127-471 from Labora) • PBS (GIBCO 14040) • Prostaglandin E2 Assay (Cisbio, cat. no. 62P2APEC) • Biomek FX robot (Beckman Coulter) • Biomek NX robot (Beckman Coulter) • Multidrop; micro or combi (ThermoLabsystems) • Plate reader: Safire2 (Tecan)
Microsomes from Rosetta E. coli bacteria expressing recombinant human mPGES-1 can be derived as described below:
Inoculate 5 mL LB with Amp and Chloro with bacteria from freeze culture. Incubate overnight at 37° C. with 200 rpm. Thereafter, inoculate 500-800 mL LB containing Amp and Chloro with the 5 mL on culture and grow to OD640 of 0.6-0.8. Chill the culture to +4° C. before induction. Induce the culture with IPTG at a final concentration of 400 μM. Express the protein at room temp 18-23° C. with 200 rpm shaking overnight.
The following steps can be performed on the following day: • 1. Spin down the cells in 250 mL centrifuge flasks for 15 min at 7000 rpm • 2. Dissolve the pellet from 250 mL culture in 12.5 mL homogenization buffer • 3. Disintegrate the cells by sonication, 4×10 seconds at 35% amplitude • 4. Add 2.5 mL MgCl2 (100 mM) and DNase 12.5 μL (0.8 mg/mL) and incubate on ice for 30 min • 5. Spin down the bacteria debris and save the supernatant, 7000 rpm for 15 min • 6. Isolate the protein containing membranes in the supernatant by ultracentrifugation 45000×g for 1 hour. • 7. Discard the supernatant and dissolve the pellet in 20 mM KPi buffer and aliquot the enzyme and store aliquots at −80° C.
Before each experiment is performed an aliquot of the enzyme is thawed and it can then be dissolved in 0.1 M KP, pH 7.4 buffer containing 2.5 mM GSH. 50 μL of this enzyme solution is subsequently dispensed in a 384-well plate at room temperature. 0.5 μL of the inhibitor dissolved in DMSO is thereafter added to each well and incubated for 25 minutes at room temperature. Subsequently, 2 μL of PGH2 dissolved in an appropriate solvent is added to each well and after one minute at room temperature, the acidified stop solution containing FeCl2 is added. 4 μL of the total volume is transferred to a separate plate and diluted 750-fold in two separate steps before quantification of PGE2.
In order to quantitate the amount of PGE2 that has been formed, a homogenous time resolved fluorescent (HTRF) detection of PGE2 can be performed by the use of a commercially available kit from CisBio essentially according to the manufacturer's protocol. […]
In general terms: Time-resolved FRET reads energy transfer from a long-lived donor to a nearby acceptor.
Regarding `O=C(NCc1ccc(Cl)c(Nc2nc3cc(Cl)c(N4CCCC(C(F)(F)F)C4)cc3[nH]2)c1)C1(C(F)(F)F)CC1` (centres unmarked) [Example 72], the IC50 (commonly the concentration at which inhibition is half-maximal) is 11 nM.

`CC(=O)N1CCN(c2cc3c(cc2Cl)nc(Nc2cc(CNC(=O)C4(C(F)(F)F)CC4)ccc2Cl)n3C)CC1` [Example 73]: the half-inhibitory concentration (IC50) stood at 61 nM.

On to `CC(=O)N1CCN(c2cc3[nH]c(Nc4cc(CNC(=O)C5(C(F)(F)F)CC5)ccc4Cl)nc3cc2Cl)CC1` [Example 74], for which the IC50 was found to be 144 nM.

As for `O=C(NCc1ccc(Cl)c(Nc2nc3cc(Cl)c(N4CCC(C(F)(F)F)CC4)cc3[nH]2)c1)C1(C(F)(F)F)CC1` [Example 75], the half-inhibitory concentration (IC50) turned out to be 8.7 nM.

Take `Cn1c(Nc2cc(CNC(=O)C3(C(F)(F)F)CC3)ccc2Cl)nc2cc(Cl)c(N3CCC(c4ccccc4)CC3)cc21` [Example 76, N-{4-Chloro-3-[5-chloro-1-methyl-6-(4-phenyl-piperidin-1-yl)-1H-benzimidazol-2-ylamino]-benzyl}-1-trifluoromethyl-cyclopropanamide]: the IC50 is 3.1 nM.

For the molecule `COC1CCN(c2cc3c(cc2Cl)nc(Nc2cc(CNC(=O)C4(C(F)(F)F)CC4)ccc2Cl)n3C)CC1` [Example 77], the half-inhibitory concentration (IC50) came out at 10 nM.

With `Cn1c(Nc2cc(CNC(=O)C3(C(F)(F)F)CC3)ccc2Cl)nc2cc(Cl)c(N3CCC(C)(C)CC3)cc21` [Example 78], the concentration for half-maximal inhibition (IC50) stood at 1.7 nM.

In the case of `Cn1c(Nc2cc(CNC(=O)C3(C(F)(F)F)CC3)ccc2Cl)nc2cc(Cl)c(N3CCC(F)(F)CC3)cc21` [Example 79], the IC50 turned out to be 2.4 nM.

For `CN(C)CCn1c(Nc2cc(CNC(=O)C3(C(F)(F)F)CC3)ccc2Cl)nc2cc(Cl)c(N3CCC(C(F)(F)F)CC3)cc21` [Example 80], the IC50 was 54 nM.

As to `COCCn1c(Nc2cc(CNC(=O)C3(C(F)(F)F)CC3)ccc2Cl)nc2cc(Cl)c(N3CCC(C(F)(F)F)CC3)cc21` [Example 81], the IC50 turned out to be 6.7 nM.

As for `Cn1c(Nc2cc(CNC(=O)C3(C(F)(F)F)CC3)ccc2Cl)nc2cc(C#N)c(N3CCC(C(F)(F)F)CC3)cc21` [Example 82, N-{4-Chloro-3-[5-cyano-1-methyl-6-(4-trifluoromethyl-piperidin-1-yl)-1H-benzimidazol-2-ylamino]-benzyl}-1-trifluoromethyl-cyclopropanamide], the IC50 is 1.7 nM.

Consider `Cn1c(Nc2cc(CNC(=O)C3(C(F)(F)F)CC3)ccc2Cl)nc2cc(Cl)c(N3CCN(c4ccc(C(F)(F)F)cc4)CC3)cc21` [Example 83, N-{4-Chloro-3-[5-chloro-1-methyl-6-(4-(4-trifluoromethylphenyl)-piperazin-1-yl)-1H-benzimidazol-2-ylamino]-benzyl}-1-trifluoromethyl-cyclopropanamide], for which the IC50 is 1.3 nM.

On to `Cn1c(Nc2cc(CNC(=O)C3(C(F)(F)F)CC3)ccc2Cl)nc2cc(F)c(N3CCC(C(F)(F)F)CC3)c(F)c21` [Example 84, N-{4-Chloro-3-[5,7-difluoro-1-methyl-6-(4-trifluoromethyl-piperidin-1-yl)-1H-benzimidazol-2-ylamino]-benzyl}-1-trifluoromethyl-cyclopropanamide], for which the IC50 is 7.3 nM.

In the case of `Cn1c(Nc2cc(CNC(=O)C3(C(F)(F)F)CC3)ccc2Cl)nc2cc(F)c(N3CCC(C)(C)CC3)c(F)c21` [Example 85], the IC50 was 20 nM.

As for `Cn1c(Nc2cc(CNC(=O)C3(C(F)(F)F)CC3)ccc2Cl)nc2cc(F)c(N3CCC(C(F)(F)F)CC3)cc21` [Example 86, N-{4-Chloro-3-[5-fluoro-1-methyl-6-(4-trifluoromethyl-piperidin-1-yl)-1H-benzimidazol-2-ylamino]-benzyl}-1-trifluoromethyl-cyclopropanamide], the half-inhibitory concentration (IC50) came out at 7.1 nM.

As to `Cn1c(Nc2cc(CNC(=O)C3(C(F)(F)F)CC3)ccc2Cl)nc2cc(F)c(N3CCC(C)(C)CC3)cc21` [Example 87], the IC50 is 14 nM.

For `O=C(NCc1ccc(Cl)c(Nc2nc3cc(Cl)c(N4CCC(C(F)(F)F)CC4)cc3n2CC2CC2)c1)C1(C(F)(F)F)CC1` [Example 88], the IC50 turned out to be 5.3 nM.

For the molecule `O=C(NCc1ccc(Cl)c(Nc2nc3cc(Cl)c(N4CCC(C(F)(F)F)CC4)cc3n2CC(F)(F)F)c1)C1(C(F)(F)F)CC1` [Example 89], the half-maximal inhibitory concentration (IC50) worked out at 6.1 nM.

In the case of `Cn1c(Nc2cc(CNC(=O)C3(C(F)(F)F)CC3)ccc2Cl)nc2cc(Cl)c(N3CCN(c4ccccc4)CC3)cc21` [Example 90], the half-maximal inhibitory concentration (IC50) came to 2.2 nM.

With `Cn1c(Nc2cc(CNC(=O)C3(C(F)(F)F)CC3)ccc2Cl)nc2cc(Cl)c(N3CCC(c4ccc(F)cc4)CC3)cc21` [Example 91], the IC50 stood at 3.6 nM.

As to `N#Cc1c(N2CCCC(C(F)(F)F)C2)ccc2nc(Nc3cc(CNC(=O)C4(C(F)(F)F)CC4)ccc3Cl)[nH]c12` (centres unmarked) [Example 93, N-{4-Chloro-3-[4-cyano-5-(3-trifluoromethyl-piperidin-1-yl)-1H-benzimidazol-2-ylamino]-benzyl}-1-trifluoromethyl-cyclopropanamide], the IC50 stood at 17 nM.

With `Cn1c(Nc2cc(CNC(=O)C(C)(F)F)ccc2Cl)nc2cc(Cl)c(N3CCC(C(F)(F)F)CC3)cc21` [Example 94, N-{4-Chloro-3-[5-chloro-1-methyl-6-(4-trifluoromethyl-piperidin-1-yl)-1H-benzimidazol-2-ylamino]-benzyl}-2,2-difluoro-propionamide], the IC50 amounted to 3.5 nM.

`Cn1c(Nc2cc(CNC(=O)C(C)(F)F)ccc2Cl)nc2cc(Cl)c(N3CCC(c4ccccc4)CC3)cc21` [Example 95]: the IC50 worked out at 2.1 nM.

As to `Cn1c(Nc2cc(CNC(=O)C(C)(F)F)ccc2Cl)nc2cc(Cl)c(N3CCN(c4ccc(C(F)(F)F)cc4)CC3)cc21` [Example 96], the IC50 stood at 4.1 nM.

Regarding `Cn1c(Nc2cc(CNS(=O)(=O)C(C)(C)C)ccc2Cl)nc2cc(Cl)c(N3CCC(C(F)(F)F)CC3)cc21` [Example 99, N-(4-Chloro-3-(5-chloro-1-methyl-6-(4-trifluoromethyl-piperidin-1-yl)-1H-benzo[d]imidazol-2-ylamino)benzyl)-2-methylpropane-2-sulfonamide], the IC50 came to 4 nM.

For the molecule `Cn1c(Nc2cc(CNS(=O)(=O)C(C)(C)C)ccc2Cl)nc2cc(Cl)c(N3CCN(c4ccc(C(F)(F)F)cc4)CC3)cc21` [Example 100], the IC50 is 7.7 nM.

Regarding `Cn1c(Nc2cc(CNC(=O)C3(C(F)(F)F)CC3)ccc2C(F)(F)F)nc2cc(Cl)c(N3CCC(C(F)(F)F)CC3)cc21` [Example 101, N-{4-Trifluoromethyl-3-[5-chloro-1-methyl-6-(4-trifluoromethyl-piperidin-1-yl)-1H-benzimidazol-2-ylamino]-benzyl}-1-trifluoromethyl-cyclopropanamide], the IC50 was determined as 2.8 nM.

As for `Cn1c(Nc2cc(CNC(=O)C3CC3)ccc2C(F)(F)F)nc2cc(Cl)c(N3CCC(C(F)(F)F)CC3)cc21` [Example 102], the IC50 is 2.4 nM.

Take `Cn1c(Nc2cc(CNC(=O)c3c(F)cccc3Cl)ccc2C(F)(F)F)nc2cc(Cl)c(N3CCC(C(F)(F)F)CC3)cc21` [Example 103]: the IC50 was 2 nM.
